Blank lines part the entries; values can stand above or below the compound they belong to.
How the values were obtained:
[1] = Drug release (dissolution), USP XX paddle apparatus, distilled water at 37°C; assay type: physicochemical; conditions: for time to total release: drug simply pasted/mixed into the polymer support matrix (uncoated nuclei); for release kinetics / release rate: nuclei covered with the diffusion regulating film; for release rate: during the release period; for influence of the second film on the drug diffusion rate: nuclei with first and second films compared with first film only; for % drug released: distilled water at 37°C, average of 6 determinations
Experimental: The Tiapride release was monitored for the uncoated nuclei, the nuclei with the first film applied, and the finished nuclei also comprising the second film.
A USP XX paddle apparatus was used, the dissolving medium being distilled water at 37°C.
The obtained results given hereinafter are the average of 6 determinations.
The Diltiazem release rate was measured on noncoated nuclei, nuclei coated with the first film and the finalized form with the second film coating.
A USP XX paddle apparatus was used and the dissolving medium was distilled water at 37°C.

[2] = Pharmacokinetic parameters obtained in man, used to calculate the optimum hourly dose; conditions: human, in vivo, read-out: elimination constant (Kel) (converted)
[3] = cited from earlier work

time to total release [1]: totally released within two hours | release kinetics [1]: on the order of zero | release rate [1]: 10 to 15 mg/h | influence of the second film on the drug diffusion rate [1]: practically no effect | k el [2]: 3.42e-05 s⁻¹
SMILES: COc1ccc([C@@H]2Sc3ccccc3N(CCN(C)C)C(=O)[C@@H]2OC(C)=O)cc1 [Diltiazem]
distribution volume (Vd) ([3]; humans, unit not given): 1065 | half life ([3]; in man): 4 h

time to total release [1]: totally released within two hours | release kinetics [1]: zero order | release rate [1]: 10 to 15 mg/h | % drug released ([1]; nuclei covered with the first and second films, 1 hour): 0% | % drug released ([1]; nuclei covered with the first and second films, 2 hours): 1% | % drug released ([1]; nuclei covered with the first and second films, 3 hours): 16% | % drug released ([1]; nuclei covered with the first and second films, 4.5 hours): 34% | % drug released ([1]; nuclei covered with the first and second films, 5.5 hours): 44% | % drug released ([1]; nuclei covered with the first and second films, 6.5 hours): 57% | % drug released ([1]; nuclei covered with the first and second films, 7.5 hours): 71% | % drug released ([1]; nuclei covered with the first and second films, 8.5 hours): 83% | % drug released ([1]; nuclei covered with the first film, 1 hour): 2% | % drug released ([1]; nuclei covered with the first film, 2 hours): 4% | % drug released ([1]; nuclei covered with the first film, 3 hours): 14% | % drug released ([1]; nuclei covered with the first film, 3.5 hours): 19.3% | % drug released ([1]; nuclei covered with the first film, 4.5 hours): 34% | % drug released ([1]; nuclei covered with the first film, 5 hours): 47% | % drug released ([1]; nuclei covered with the first film, 6 hours): 57% | % drug released ([1]; nuclei covered with the first film, 7 hours): 69% | % drug released ([1]; nuclei covered with the first film, 8 hours): 83% | influence of the second film on the drug diffusion rate [1]: practically no influence | % drug released ([1]; uncoated nuclei, 15 min): 37.8% | % drug released ([1]; uncoated nuclei, 30 min): 51.6% | % drug released ([1]; uncoated nuclei, 60 min): 71.1% | % drug released ([1]; uncoated nuclei, 90 min): 80.3% | % drug released ([1]; uncoated nuclei, 120 min): 86.0% | k el [2]: 4.81e-05 s⁻¹
SMILES: CCN(CC)CCNC(=O)c1cc(S(C)(=O)=O)ccc1OC.Cl [Tiapride, N-diethylaminoethyl-2-methoxy-5-methylsulphonyl-benzamide hydrochloride]
hematic peak after administering 100 mg (Cp) ([3]; in man, 100 mg): 800 ng/mL | half life ([3]; in man): 4 h | therapeutic range ([3]; in man): 0.6 - 0.9 mg/l of plasma

From patent EP0092060A1, “Pharmaceutical products in sustained-release form, and their preparation process” (LABORATORI PROPHIN Industria Chimica Farmaceutica S.p.A., priority 1982, dated 1983)
